Measurements reported in patent US4355179A, “Radioactive nuclide labeled propiophenone compounds” (Burroughs Wellcome Co., priority 1980, dated 1982).

Columns and labels:
[1] = test system: anti-compound 2 sera, anti-compound 3 sera; assay: RIA of bupropion using 125I-labeled competitors with anti-compound 2 sera and anti-compound 3 sera; format: binding; details: with anti-compound 2 or anti-compound 3 sera
Experimental: (§1) Samples of six standard solutions of bupropion in blank plasma having concentrations of 0.39 to 50 ng/ml) are pipetted (0.1 ml each) in duplicate into 12×75 mm plastic tubes. Duplicate non-specific binding (no antibody) and maximum binding tubes (no unlabeled bupropion) receive 0.1 ml blank plasma. Spiked plasma controls at several concentrations of (e.g., 1.0, 10.0, and 100 ng/ml) and plasma samples for assay (diluted into the standard range with blank plasma if necessary) are assayed in duplicate. After being placed in an ice bath, all tubes receive (in order) 0.2 ml ^3 H bupropion (416 pg. containing approximately 10^4 cpm) and 0.7 ml anti-bupropion serum (raised to a ring-functionalized immunogen according to the present invention) (at pre-determined dilutions such that approximately 40% of the ^3 H bupropion added is bound), both in assay buffer (0.05 M phosphate-bufferedisotonic saline, containing 0.01 M EDTA and 0.1% gelatin, pH 7.0). Non-specific binding tubes receive 0.7 ml assay buffer.) Following incubation either at 25° C. for 2 hours or overnight at 4° C., bound and free ^3 H bupropion are separated by incubation for 10 min at 0° C. with 0.5 ml ice-cold dextran-coated charcoal solution (0.25% dextran, 5 mg/ml charcoal, in assay buffer) followed by centrifugation for 10 minutes at 4° C. […] The supernatants, containing antibody-bound ^3 H bupropion are carefully decanted into liquid scintillation cocktail for quantitation of ^3 H. After counts (minus average non-specific binding cpm) are expressed as percentages of average maximum binding cpm, bupropion concentrations in plasma samples and spiked controls are read from a standard curve (log concentration vs percent average maximum binding).
RIA's have been run according to the method of Example X utilizing ^125 I labeled bupropion competitors of the present invention in conjunction with antisera obtained following immunization with immunogens of the present invention. […] Following the ethanol precipitation of antibody-bound ^125 I-bupropion competitor at equilibrium, ^125 I in the protein pellets was quantified.

[2] = test system: antisera raised by a bupropion variant-carrier material conjugate; assay: Competition with radiolabeled bupropion or radiolabeled competitor for binding to antisera; details: against radiolabeled bupropion or radiolabeled competitor
[3] = test system: anti-compound 1 sera; assay: RIA of bupropion using 125I-labeled competitor with anti-compound 1 sera; format: binding; details: compound 6 with anti-compound 1 sera, compared with the other RIA's
Experimental: as §1, with “7.0).” for “7.0). Non-specific binding tubes receive 0.7 ml assay buffer.) Following incubation either at 25° C. for 2 hours or overnight at 4° C., bound and free ^3 H bupropion are separated by incubation for 10 min at 0° C. with 0.5 ml ice-cold dextran-coated charcoal solution (0.25% dextran, 5 mg/ml charcoal, in assay buffer) followed by centrifugation for 10 minutes at 4° C.”, “binding). […]” for “binding).”

Row | SMILES | RIA sensitivity relative to the compound 10 (3H bupropion) assay system [1] | other results
1 | CC(NC(C)(C)C)C(=O)c1ccc(OCC(=O)NCCc2ccc(O)c([125I])c2)c(Cl)c1 (stereo not drawn) [Compound 7, α-t-Butylamino-3-chloro-4-carbomethoxypropiophenone-^125 I-tyramine amide] | approximately equal | 
2 | CC(NC(C)(C)C)C(=O)c1ccc(O)c([125I])c1 (stereo not drawn) [Compound 9, ^125 I-α-t-Butylamino-3-iodo-4-hydroxypropiophenone] | approximately ten times more sensitive | 
3 | CC(NC(C)(C)C)C(=O)c1ccc(CCCOC(=O)CCC(=O)NCCc2ccc(O)c([125I])c2)c(Cl)c1 (stereo not drawn) [Compound 8, α-t-butylamino-3-chloro-4-γ-hydroxypropylpropiophenonehemisuccinate-^125 I-tyramine amide] | approximately equal | 
4 | CC(NC(C)(C)C)C(=O)c1cccc(Cl)c1 (racemic) [bupropion, (±)-2-tert-butylamino-3'-chloropropiophenone] |  | competition for binding to antisera [2]: successfully compete
5 | CC(NC(C)(C)C)C(=NOCC(=O)NCCc1ccc(O)c([125I])c1)c1cccc(Cl)c1 (stereo not drawn) [Compound 6, α-t-Butylamino-3-chloropropiophenone-carboxymethyloxime-^125 I-tyramine amide] |  | RIA sensitivity [3]: least sensitive
